The first test addresses T1, Gβ1γ2 (Homo sapiens, UniProt P62873). Nature of the test: Competition ELISA with the high-affinity SIGK peptide. As to conditions: read-out: Median Inhibitory Concentration IC50 (binding inhibitors of SIGK); competition with SIGK peptide in ELISA.
For `Cc1cc(O)c(-c2cc(O)c(C)cc2O)cc1O` [compound 2805], the IC50 is 7.1 µM. The same measure, in the same setting: the figure for `C[N+]1(CC[N+]2(C)CCCC2c2cccnc2)CCCC1c1cccnc1` (centres unmarked) [compound 3284] is 262 µM. Regarding `O=C1c2ccccc2C(=O)c2c1ccc(C(=O)O)c2-c1ccc2ccccc2c1` [compound 9608], the IC50 is 16.5 µM. With `Cc1ccc(S(=O)(=O)OC2C(C3COC(C)(C)O3)OC3OC(C)(C)OC32)cc1` (centres unmarked) [compound 14163], the IC50 turned out to be 5.9 µM. Consider `CN(C)CS/C(N)=N/[C@H](O)C(Cl)(Cl)Cl` [compound 14555], for which the IC50 amounted to 26 µM. As for `C[N+]1(CCN[N+]2(C)CCCCC2)CCc2ccccc2C1` (centres unmarked) [compound 17770], the IC50 worked out at 59.1 µM. Take `CCC(=O)OCN1C(=O)C=CC1=O` [compound 19630]: the IC50 worked out at 53.6 µM. On to `O=C(O)[C@@H]1[C@H](C(=O)O)[C@]2(Cl)C(Cl)=C(Cl)[C@@]1(Cl)C2(Cl)Cl` [compound 22225], for which the IC50 is 11.4 µM. Consider `O=C1c2ccccc2C(=O)c2c(Nc3cc4c5c(ccc6c7ccc8c9c(cc(Nc%10cccc%11c%10C(=O)c%10ccccc%10C%11=O)c(c3c56)c97)-c3ccccc3C8=O)C(=O)c3ccccc3-4)cccc21` [compound 23128], for which the IC50 amounted to 27 µM.

With `CN(CCc1ccccn1)c1ccc2c(c1)C(=O)c1ccccc1-2` [compound 24048], the IC50 turned out to be 292 µM. In the case of `Nc1ccc(S(=O)(=O)c2ccc(NCN3C(=O)NC(=O)C(=O)C3=O)cc2)cc1` [compound 34238], the IC50 worked out at 42 µM. Turning to `CN1C[C@H](c2ccccc2)C(O)([C@]2(c3ccccc3)CN(C)C[C@@H](c3ccccc3)C2=O)[C@H](c2ccccc2)C1` (some centres unmarked) [compound 39207], the IC50 was 10.7 µM. On to `CC[N+](C)(CC)CCN1C(=O)c2ccccc2S1(=O)=O` [compound 45126], for which the IC50 came to 69.7 µM.

For `O=C1C(Cl)=C(Nc2ccc(S(=O)(=O)Nc3ccccn3)cc2)C(=O)c2ccccc21` [compound 45382], the IC50 came to 35.4 µM. The same measure, in the same setting: the figure for `O=C1c2cc([N+](=O)[O-])ccc2-c2ccc3c4ccc5c6c(ccc(c7ccc1c2c73)c64)C(=O)c1cc([N+](=O)[O-])ccc1-5` [compound 51535] is 2.4 µM; for `COc1ccc(CC[N@+]2(C)COc3cc4oc(=O)cc(C)c4cc3C2)cc1OC` [compound 59275] it is 197 µM. Regarding `CN(C)C1C(=O)C(C(N)=O)=C(O)C2(O)C(=O)C3=C(O)c4c(O)cccc4C(C)(O)C3CC12` (centres unmarked) [compound 69343], the IC50 stood at 16.8 µM. For `Nc1cc(S(N)(=O)=O)ccc1SSc1ccc(S(N)(=O)=O)cc1N` [compound 83217], the IC50 came out at 56.9 µM. On to `NCCNC(=S)S` [compound 83224], for which the IC50 stood at 24.9 µM. On the same count and under the same terms, the same measure for `C[C@]12CC[C@H]3[C@@H](CCC4=CC(=O)CC[C@@]43C)[C@@H]1CC[C@@H]2C(=O)COS(=O)(=O)c1ccc(Br)cc1` [compound 88915]: 47.7 µM. Consider `C[N+]1(CCC[N+]2(C)C[C@H]3[C@H](C2)[C@H]2C=C[C@@H]3CC2)CCOCC1` (some centres unmarked) [compound 90831], for which the IC50 stood at 92.9 µM. Turning to `C[C@H]1CCCC2(CC[N+](C)(CCC[N+](C)(C)C)CC2)C1` (some centres unmarked) [compound 95676], the IC50 came to 182 µM. Take `Nc1c(S(=O)(=O)O)cc(Nc2cccc(S(N)(=O)=O)c2)c2c1C(=O)c1ccccc1C2=O` [compound 117079]: the IC50 was determined as 56 µM. For the molecule `N=C1C(O)C2(I)c3ccccc3N3C(=N)C(O)C4c5ccccc5N1C4C32` (centres unmarked) [compound 118176], the IC50 was 8.1 µM.

Turning to `O=C(O)c1c(Br)c(Br)c(Br)c(Br)c1C1c2ccc(O)cc2Oc2cc(O)ccc21` [compound 119889], the IC50 stood at 4.3 µM. `O=C(O)C1CCCCC1c1c2ccc(=O)c(O)c-2oc2c(O)c(O)ccc12` (centres unmarked) [compound 119910]: the IC50 was 0.2 µM. The same measure, in the same setting: the figure for `O=C(O)/C=C/c1c2ccc(=O)c(O)c-2oc2c(O)c(O)ccc12` [compound 119911] is 0.2 µM; for `CC1C2C=CC1C(c1c3ccc(=O)c(O)c-3oc3c(O)c(O)ccc13)C2C(=O)O` (centres unmarked) [compound 119913] it is 0.7 µM; for `N=C(N)SCCN1CCCCC1` [compound 121771] it is 198 µM. In the case of `Nc1ccc(-c2ccc(Nc3cc(S(=O)(=O)O)c(N)c4c3C(=O)c3ccccc3C4=O)cc2)c(S(=O)(=O)O)c1` [compound 125910], the IC50 was found to be 18 µM.

With `O=C1c2ccccc2C(=O)c2c(NC3CCCCC3)ccc(Nc3ccc(S(=O)(=O)O)cc3)c21` [compound 128437], the IC50 worked out at 24 µM. In the case of `O=C(c1ccc([N+](=O)[O-])cc1)C(Br)C(Br)c1ccnc2ccccc12` (centres unmarked) [compound 150289], the IC50 was determined as 42.5 µM.

The next test deals with T1, Gβ1γ2.
Assay: not given
As to conditions: surface plasmon resonance; cited from earlier work. (In general: SPR reads the build-up and loss of mass on a sensor chip optically.)
`O=C1OC2(c3ccccc31)c1ccc(O)c(O)c1Oc1c2ccc(O)c1O` [gallein]: the dissociation constant (Kd) (usually the free concentration of one partner at which half of the binding sites on the other are occupied at equilibrium, for simple one-to-one binding) was around 0.4 µM.

Another test deals with phosphoinositide 3-kinase γ (PI3K).
Assay: not given
As to conditions: cited from earlier work.
Regarding `O=C(O)C1CCCCC1c1c2ccc(=O)c(O)c-2oc2c(O)c(O)ccc12` (centres unmarked) [compound 119910], the “Gβγ-dependent activation of phosphoinositide 3-kinase γ (PI3K)” value is on record as “inhibit”.

The subject of another test is PI3K.
Assay: not given
Particulars: cited from earlier work.
Take `O=C1OC2(c3ccccc31)c1ccc(O)c(O)c1Oc1c2ccc(O)c1O` [gallein]: the PI3K activation entry is listed as “inhibit”.

The subject of a further test is neutrophil.
Assay: not given
As to conditions: cited from earlier work.
Take `O=C1OC2(c3ccccc31)c1ccc(O)c(O)c1Oc1c2ccc(O)c1O` [gallein]: the chemoattractant-dependent neutrophil migration entry is “inhibit”.

Test system in a further test: not given
Assay: not given
As to conditions: mice; cited from earlier work.
In the case of `O=C1OC2(c3ccccc31)c1ccc(O)c(O)c1Oc1c2ccc(O)c1O` [gallein], the carrageenan-induced inflammation result was “lessen”.

In the next test the test system is phospholipase C.
Assay: not given
Particulars: cited from earlier work.
As to `O=C(O)C1CCCCC1c1c2ccc(=O)c(O)c-2oc2c(O)c(O)ccc12` (centres unmarked) [compound 119910], the “Gβγ-dependent activation of phospholipase C” value is listed as “inhibit”.

(Values after publication PMC2846521 (Journal of chemical information and modeling, 2009).)
